Like-named read-outs stand apart in the source and are kept apart here.
What was measured:
[1] = system: phosphorylated AKT Ser473 (pAKT S473), mTORC2 activity, PC3 cells; test: mTOR target engagement assay, immunofluorescent cell-based, pAKT S473 readout (mTORC2 activity); conditions: PC3 cells
In short: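 After blocking, cells were stained overnight at 4 °C with anti-pAKT S473 antibody, then a fluorescent secondary; inhibition was read as reduced fluorescence intensity.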

[2] = system: phosphorylated 4E-BP1 Thr37/46 (p4E-BP1 Thr37/46), mTORC1 activity, PC3 cells; test: mTOR target engagement assay, immunofluorescent cell-based, p4E-BP1 Thr37/46 readout (mTORC1 activity); conditions: PC3 cells, read-out: p4E-BP1 Thr37/46 IC50
In short: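 PTEN-mutant PC3 prostate cells were treated with serially diluted compound in 5% FBS F12 medium (0.25% DMSO) for ninety minutes at 37° C, glyoxal-fixed, then immunostained overnight at 4° C for p4E-BP1 Thr37/46 with an Alexa Fluor 488 secondary. IC50 came from four-parameter fits of fluorescence, DMSO-only wells defining 100%.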

## CS(=O)(=O)c1c([C@@H]2C[C@H]3CC[C@@H](C2)N3c2nnn[nH]2)nc2c(-c3ccc(-c4ccccc4)nc3)cnn2c1N [Compound 3.18, 5-((1R,3s,5S)-8-(1H-tetrazol-5-yl)-8-azabicyclo[3.2.1]octan-3-yl)-6-(methylsulfonyl)-3-(6-phenylpyridin-3-yl)pyrazolo[1,5-a]pyrimidin-7-amine]
[1]; Homo sapiens, PC-3, Table 3-1
  IC50: > 10000 nM
[2]; Homo sapiens, PC-3, Table 3-1
  IC50: > 10000 nM

## CS(=O)(=O)c1c([C@@H]2C[C@H]3CC[C@@H](C2)N3C=O)nc2c(-c3ccc(-c4ccccc4)nc3)cnn2c1N [Compound 3.19, (1R,3s,5S)-3-(7-amino-6-(methylsulfonyl)-3-(6-phenylpyridin-3-yl)pyrazolo[1,5-a]pyrimidin-5-yl)-8-azabicyclo[3.2.1]octane-8-carbaldehyde]
[1]; Homo sapiens, PC-3, Table 3-1
  IC50: 100 to 1000 nM
[2]; Homo sapiens, PC-3, Table 3-1
  IC50: 100 to 1000 nM

## CS(=O)(=O)c1c([C@@H]2C[C@H]3CC[C@@H](C2)N3c2nnc[nH]2)nc2c(-c3ccc(-c4ccccc4)nc3)cnn2c1N [Compound 3.21, 5-((1R,3s,5S)-8-(4H-1,2,4-triazol-3-yl)-8-azabicyclo[3.2.1]octan-3-yl)-6-(methylsulfonyl)-3-(6-phenylpyridin-3-yl)pyrazolo[1,5-a]pyrimidin-7-amine]
[1]; Table 3-1
  IC50: 1000 to 10000 nM
[2]; Table 3-1
  IC50: 1000 to 10000 nM

## CS(=O)(=O)c1c([C@@H]2C[C@H]3CC[C@@H](C2)N3C(=O)c2nnc[nH]2)nc2c(-c3cnc(-c4ccccc4)c(O)c3)cnn2c1N [Compound 3.22, ((1R,3s,5S)-3-(7-amino-3-(5-hydroxy-6-phenylpyridin-3-yl)-6-(methylsulfonyl)pyrazolo[1,5-a]pyrimidin-5-yl)-8-azabicyclo[3.2.1]octan-8-yl)(4H-1,2,4-triazol-3-yl)methanone]
[1]; Homo sapiens, PC-3, Table 3-1
  IC50: 100 to 1000 nM
[2]; Homo sapiens, PC-3, Table 3-1
  IC50: 1000 to 10000 nM

## CS(=O)(=O)c1c([C@@H]2C[C@H]3CC[C@@H](C2)N3C(=O)CO)nc2c(-c3cnc(-c4ccccc4)c(O)c3)cnn2c1N [Compound 3.23, 1-((1R,3s,5S)-3-(7-amino-3-(5-hydroxy-6-phenylpyridin-3-yl)-6-(methylsulfonyl)pyrazolo[1,5-a]pyrimidin-5-yl)-8-azabicyclo[3.2.1]octan-8-yl)-2-hydroxyethanone]
[1]; Homo sapiens, PC-3, Table 3-1
  IC50: 1000 to 10000 nM
[2]; Homo sapiens, PC-3, Table 3-1
  IC50: 1000 to 10000 nM

## CS(=O)(=O)c1c([C@@H]2C[C@H]3CC[C@@H](C2)N3C(=O)c2nnc[nH]2)nc2c(-c3ccc(-c4nccs4)nc3)cnn2c1N [Compound 3.24, ((1R,3s,5S)-3-(7-amino-6-(methylsulfonyl)-3-(6-(thiazol-2-yl)pyridin-3-yl)pyrazolo[1,5-a]pyrimidin-5-yl)-8-azabicyclo[3.2.1]octan-8-yl)(4H-1,2,4-triazol-3-yl)methanone]
[1]; Homo sapiens, PC-3, Table 3-1
  IC50: 1 to 100 nM
[2]; Homo sapiens, PC-3, Table 3-1
  IC50: 1 to 100 nM

## CS(=O)(=O)c1c([C@@H]2C[C@H]3CC[C@@H](C2)N3C(=O)c2nnc[nH]2)nc2c(-c3cnc4ccc(F)cc4c3)cnn2c1N [Compound 3.25]
[1]; Homo sapiens, PC-3, Table 3-1
  IC50: 1 to 100 nM
[2]; Homo sapiens, PC-3, Table 3-1
  IC50: 1 to 100 nM

## CS(=O)(=O)c1c([C@@H]2C[C@H]3CC[C@@H](C2)N3S(=O)(=O)c2nnc[nH]2)nc2c(-c3ccc(-c4ccccc4)nc3)cnn2c1N [Compound 3.26, 5-((1R,3s,5S)-8-(4H-1,2,4-triazol-3-ylsulfonyl)-8-azabicyclo[3.2.1]octan-3-yl)-6-(methylsulfonyl)-3-(6-phenylpyridin-3-yl)pyrazolo[1,5-a]pyrimidin-7-amine]
[1]; Homo sapiens, PC-3, Table 3-1
  IC50: 100 to 1000 nM
[2]; Homo sapiens, PC-3, Table 3-1
  IC50: 1000 to 10000 nM

## C[C@H](O)C(=O)N1[C@@H]2CC[C@H]1C[C@H](c1nc3c(-c4ccc(-c5ccccc5)nc4)cnn3c(N)c1S(C)(=O)=O)C2 [Compound 3.27]
[1]; Homo sapiens, PC-3, Table 3-1
  IC50: 100 to 1000 nM
[2]; Homo sapiens, PC-3, Table 3-1
  IC50: 100 to 1000 nM

## C[C@@H](O)C(=O)N1[C@@H]2CC[C@H]1C[C@H](c1nc3c(-c4ccc(-c5ccccc5)nc4)cnn3c(N)c1S(C)(=O)=O)C2 [Compound 3.28, (R)-1-((1R,3S,5S)-3-(7-amino-6-(methylsulfonyl)-3-(6-phenylpyridin-3-yl)pyrazolo[1,5-a]pyrimidin-5-yl)-8-azabicyclo[3.2.1]octan-8-yl)-2-hydroxypropan-1-one]
[1]; Homo sapiens, PC-3, Table 3-1
  IC50: 100 to 1000 nM
[2]; Homo sapiens, PC-3, Table 3-1
  IC50: 100 to 1000 nM

## CS(=O)(=O)c1c([C@@H]2C[C@H]3CC[C@@H](C2)N3C(=O)c2nnc(O)[nH]2)nc2c(-c3ccc(-c4ccccc4)nc3)cnn2c1N [Compound 3.29, ((1R,3s,5S)-3-(7-amino-6-(methylsulfonyl)-3-(6-phenylpyridin-3-yl)pyrazolo[1,5-a]pyrimidin-5-yl)-8-azabicyclo[3.2.1]octan-8-yl)(5-hydroxy-4H-1,2,4-triazol-3-yl)methanone]
[1]; Homo sapiens, PC-3, Table 3-1
  IC50: 100 to 1000 nM
[2]; Homo sapiens, PC-3, Table 3-1
  IC50: 100 to 1000 nM

## CNC(=O)N1[C@@H]2CC[C@H]1C[C@H](c1nc3c(-c4ccc(-c5ccccc5)nc4)cnn3c(N)c1S(C)(=O)=O)C2 [Compound 3.30, (1R,3s,5S)-3-(7-amino-6-(methylsulfonyl)-3-(6-phenylpyridin-3-yl)pyrazolo[1,5-a]pyrimidin-5-yl)-N-methyl-8-azabicyclo[3.2.1]octane-8-carboxamide]
[1]; Homo sapiens, PC-3, Table 3-1
  IC50: 100 to 1000 nM
[2]; Homo sapiens, PC-3, Table 3-1
  IC50: 100 to 1000 nM

## CS(=O)(=O)c1c([C@@H]2C[C@H]3CC[C@@H](C2)N3C(=O)c2nnc[nH]2)nc2c(-c3ccc(-c4ccccn4)cc3)cnn2c1N [Compound 3.31, ((1R,3s,5S)-3-(7-amino-6-(methylsulfonyl)-3-(4-(pyridin-2-yl)phenyl)pyrazolo[1,5-a]pyrimidin-5-yl)-8-azabicyclo[3.2.1]octan-8-yl)(4H-1,2,4-triazol-3-yl)methanone]
[1]; Homo sapiens, PC-3, Table 3-1
  IC50: 1 to 100 nM
[2]; Homo sapiens, PC-3, Table 3-1
  IC50: 100 to 1000 nM

## COc1ccc(-c2ccc(-c3cnn4c(N)c(S(C)(=O)=O)c([C@@H]5C[C@H]6CC[C@@H](C5)N6C(=O)c5nnc[nH]5)nc34)cn2)c(F)c1 [Compound 3.32, ((1R,3s,5S)-3-(7-amino-3-(6-(2-fluoro-4-methoxyphenyl)pyridin-3-yl)-6-(methylsulfonyl)pyrazolo[1,5-a]pyrimidin-5-yl)-8-azabicyclo[3.2.1]octan-8-yl)(4H-1,2,4-triazol-3-yl)methanone]
[1]; Homo sapiens, PC-3, Table 3-1
  IC50: 1 to 100 nM
[2]; Homo sapiens, PC-3, Table 3-1
  IC50: 1 to 100 nM

## COc1ccc(-c2ccc(-c3cnn4c(N)c(S(C)(=O)=O)c([C@@H]5C[C@H]6CC[C@@H](C5)N6C(=O)c5nnc[nH]5)nc34)cn2)cc1 [Compound 3.33, ((1R,3s,5S)-3-(7-amino-3-(6-(4-methoxyphenyl)pyridin-3-yl)-6-(methylsulfonyl)pyrazolo[1,5-a]pyrimidin-5-yl)-8-azabicyclo[3.2.1]octan-8-yl)(4H-1,2,4-triazol-3-yl)methanone]
[1]; Homo sapiens, PC-3, Table 3-1
  IC50: 1 to 100 nM
[2]; Homo sapiens, PC-3, Table 3-1
  IC50: 1 to 100 nM

## COc1ccc(-c2ccc(-c3cnn4c(N)c(S(C)(=O)=O)c([C@@H]5C[C@H]6CC[C@@H](C5)N6C(=O)c5nnc(C)[nH]5)nc34)cn2)cc1 [Compound 3.34, ((1R,3s,5S)-3-(7-amino-3-(6-(4-methoxyphenyl)pyridin-3-yl)-6-(methylsulfonyl)pyrazolo[1,5-a]pyrimidin-5-yl)-8-azabicyclo[3.2.1]octan-8-yl)(5-methyl-4H-1,2,4-triazol-3-yl)methanone]
[1]; Homo sapiens, PC-3, Table 3-1
  IC50: 1 to 100 nM
[2]; Homo sapiens, PC-3, Table 3-1
  IC50: 1 to 100 nM

## COc1ccc(-c2ccc(-c3cnn4c(N)c(S(C)(=O)=O)c([C@@H]5C[C@H]6CC[C@@H](C5)N6C(=O)c5nnc[nH]5)nc34)cn2)s1 [Compound 3.35, ((1R,3s,5S)-3-(7-amino-3-(6-(5-methoxythiophen-2-yl)pyridin-3-yl)-6-(methylsulfonyl)pyrazolo[1,5-a]pyrimidin-5-yl)-8-azabicyclo[3.2.1]octan-8-yl)(4H-1,2,4-triazol-3-yl)methanone]
[1]; Homo sapiens, PC-3, Table 3-1
  IC50: 1 to 100 nM
[2]; Homo sapiens, PC-3, Table 3-1
  IC50: 1 to 100 nM
